Data from ChEMBL document CHEMBL5120813, “Polysubstituted Cyclopentene Benzamides and Dianthramide Alkaloids from Delphinium anthriscifolium Hance” (2022).

Test system: RAW264.7
Assay: Antiinflammatory activity in mouse RAW264.7 assessed as inhibition of LPS-induced NO production preincubated for 30 mins followed by LPS stimulation measured after 24 hrs by Griess reagent based assay relative to control
Assay type: functional
Design: concentration or dose not given beside the values
Details: 0.5 h

Structure (SMILES) | inhibition (INH) [%]
COC(=O)c1cc(O)c(O)cc1NC(=O)c1cc(O)ccc1O | 40.3
COC(=O)c1c(NC(=O)c2cccc(O)c2OC)ccc(O)c1OC | 43
COC(=O)c1cc(O)c(O)cc1NC(=O)c1cc(O)ccc1OC | 78.8
COC(=O)c1cc(O)ccc1NC(=O)c1cccc(O)c1OC | 61.2
COC(=O)c1cc(O)c(O)cc1NC(=O)c1ccccc1O | 57.6
O=c1c(O)c(-c2ccc(O)c(O)c2)oc2cc(O)cc(O)c12 [QUERCETIN] | 48.6
